Converted amounts (≈) assume the structure as drawn.

This assay has as its system Mycobacterium tuberculosis. Put plainly: Antimycobacterial activity against Mycobacterium tuberculosis H37Rv by agar dilution method. The class given is functional. A general note: In agar dilution the substance is mixed into plates at graded concentrations.
Consider `O=C1c2ccccc2C(=O)C12[C@@H](c1ccccc1)[C@@H]1CSCN1[C@@]21C(=O)Nc2ccc([N+](=O)[O-])cc21`, for which the MIC (in general, the least concentration at which growth counts as inhibited) came to 12.6 µM (≈ 6.27 µg/mL). The figure for `COc1cc([C@H]2[C@@H]3CSCN3[C@@]3(C(=O)Nc4ccc(Cl)cc43)C23C(=O)c2ccccc2C3=O)cc(OC)c1OC` is 21.7 µM (≈ 12.5 µg/mL). The figure for `COc1ccc([C@H]2[C@@H]3CSCN3[C@@]3(C(=O)Nc4ccc([N+](=O)[O-])cc43)C23C(=O)c2ccccc2C3=O)cc1OC` is 11.2 µM (≈ 6.24 µg/mL); for `COc1cc([C@H]2[C@@H]3CSCN3[C@@]3(C(=O)Nc4ccc([N+](=O)[O-])cc43)C23C(=O)c2ccccc2C3=O)cc(OC)c1OC` it is 10.6 µM (≈ 6.23 µg/mL). `COc1cc([C@H]2[C@@H]3CSCN3[C@@]3(C(=O)Nc4ccccc43)C23C(=O)c2ccccc2C3=O)cc(OC)c1OC` gave an MIC greater than 46.1 µM. The figure for `O=C1c2ccccc2C(=O)C12[C@@H](c1ccccc1)[C@@H]1CSCN1[C@@]21C(=O)Nc2ccc(Cl)cc21` is 25.7 µM (≈ 12.5 µg/mL). The figure for `O=C1c2ccccc2C(=O)C12[C@@H](c1ccc(Cl)cc1)[C@@H]1CSCN1[C@@]21C(=O)Nc2ccc(Cl)cc21` is 2.99 µM (≈ 1.56 µg/mL); for `CC(C)c1ccc([C@H]2[C@@H]3CSCN3[C@@]3(C(=O)Nc4ccc(Cl)cc43)C23C(=O)c2ccccc2C3=O)cc1` it is 11.8 µM (≈ 6.24 µg/mL). With `COc1ccc([C@H]2[C@@H]3CSCN3[C@@]3(C(=O)Nc4ccc(Cl)cc43)C23C(=O)c2ccccc2C3=O)cc1`, the minimum inhibitory concentration (MIC) was determined as 24.2 µM (≈ 12.5 µg/mL).

Take `O=C1c2ccccc2C(=O)C12[C@@H](c1ccccc1Br)[C@@H]1CSCN1[C@@]21C(=O)Nc2ccc(Cl)cc21`: the MIC was 2.8 µM (≈ 1.58 µg/mL).

On to `COc1ccc([C@H]2[C@@H]3CSCN3[C@@]3(C(=O)Nc4ccc(Cl)cc43)C23C(=O)c2ccccc2C3=O)cc1OC`, for which the minimum inhibitory concentration (MIC) was found to be 22.9 µM (≈ 12.5 µg/mL).

`O=C1c2ccccc2C(=O)C12[C@@H](c1ccc(Cl)cc1)[C@@H]1CSCN1[C@@]21C(=O)Nc2ccc([N+](=O)[O-])cc21` registered a minimal inhibitory concentration (MIC) of 2.9 µM (≈ 1.54 µg/mL). Molecule `O=C1c2ccccc2C(=O)C12[C@@H](c1ccc(Br)cc1)[C@@H]1CSCN1[C@@]21C(=O)Nc2ccc([N+](=O)[O-])cc21` returned an MIC of 1.4 µM (≈ 0.807 µg/mL). In turn, `COc1ccc([C@H]2[C@@H]3CSCN3[C@@]3(C(=O)Nc4ccc([N+](=O)[O-])cc43)C23C(=O)c2ccccc2C3=O)cc1` returned an MIC of 11.9 µM (≈ 6.28 µg/mL). `O=C1c2ccccc2C(=O)C12[C@@H](c1ccccc1Cl)[C@@H]1CSCN1[C@@]21C(=O)Nc2ccc([N+](=O)[O-])cc21` registered an MIC of 5.9 µM (≈ 3.14 µg/mL).

With `O=C1c2ccccc2C(=O)C12[C@@H](c1ccccc1Cl)[C@@H]1CSCN1[C@@]21C(=O)Nc2ccc(Cl)cc21`, the MIC is 6 µM (≈ 3.13 µg/mL). `O=C1c2ccccc2C(=O)C12[C@@H](c1ccccc1)[C@@H]1CSCN1[C@@]21C(=O)Nc2ccccc21` returned an MIC greater than 55.2 µM. The figure for `O=C1c2ccccc2C(=O)C12[C@@H](c1cccc(F)c1)[C@@H]1CSCN1[C@@]21C(=O)Nc2ccc([N+](=O)[O-])cc21` is 3 µM (≈ 1.55 µg/mL); for `O=C1c2ccccc2C(=O)C12[C@@H](c1ccc(Cl)cc1)[C@@H]1CSCN1[C@@]21C(=O)Nc2ccccc21` it is 25.7 µM (≈ 12.5 µg/mL); for `CC(C)c1ccc([C@H]2[C@@H]3CSCN3[C@@]3(C(=O)Nc4ccccc43)C23C(=O)c2ccccc2C3=O)cc1` it is 25.3 µM (≈ 12.5 µg/mL). The figure for `O=C1c2ccccc2C(=O)C12[C@@H](c1cccc(Br)c1)[C@@H]1CSCN1[C@@]21C(=O)Nc2ccc([N+](=O)[O-])cc21` is 2.7 µM (≈ 1.56 µg/mL); for `COc1ccc([C@H]2[C@@H]3CSCN3[C@@]3(C(=O)Nc4ccccc43)C23C(=O)c2ccccc2C3=O)cc1` it is greater than 51.8 µM; for `Cc1ccccc1[C@H]1[C@@H]2CSCN2[C@@]2(C(=O)Nc3ccccc32)C12C(=O)c1ccccc1C2=O` it is 53.6 µM (≈ 25 µg/mL). The figure for `O=C1Nc2ccc([N+](=O)[O-])cc2[C@]12N1CSC[C@H]1[C@H](c1cccc(Cl)c1Cl)[C@]21Cc2ccccc2C1=O` is 2.8 µM (≈ 1.55 µg/mL).

Molecule `O=C1c2ccccc2C(=O)C12[C@@H](c1ccccc1Cl)[C@@H]1CSCN1[C@@]21C(=O)Nc2ccccc21` showed a minimum inhibitory concentration (MIC) of 25.7 µM (≈ 12.5 µg/mL). The figure for `O=C1c2ccccc2C(=O)C12[C@@H](c1ccccc1Br)[C@@H]1CSCN1[C@@]21C(=O)Nc2ccccc21` is 11.8 µM (≈ 6.27 µg/mL); for `O=C1c2ccccc2C(=O)C12[C@@H](c1cccc([N+](=O)[O-])c1)[C@@H]1CSCN1[C@@]21C(=O)Nc2ccccc21` it is 25.1 µM (≈ 12.5 µg/mL); for `COc1ccc([C@H]2[C@@H]3CSCN3[C@@]3(C(=O)Nc4ccccc43)C23C(=O)c2ccccc2C3=O)cc1OC` it is greater than 48.8 µM. With `CC[C@@H](CO)NCCN[C@@H](CC)CO` [ETHAMBUTOL], it took 7.6 µM (≈ 1.55 µg/mL) to inhibit growth (MIC).

The molecule `NNC(=O)c1ccncc1` [ISONIAZID] gave a minimum inhibitory concentration (MIC) of 0.4 µM (≈ 0.0549 µg/mL).

`CO[C@H]1/C=C/O[C@@]2(C)Oc3c(C)c(O)c4c(O)c(c(/C=N/N5CCN(C)CC5)c(O)c4c3C2=O)NC(=O)/C(C)=C\C=C\[C@H](C)[C@H](O)[C@@H](C)[C@@H](O)[C@@H](C)[C@H](OC(C)=O)[C@@H]1C` [RIFAMPIN] displayed an MIC of 0.1 µM (≈ 0.0823 µg/mL).

(Values after ChEMBL document CHEMBL1287784, “A facile 1,3-dipolar cycloaddition of azomethine ylides to 2-arylidene-1,3-indanediones: synthesis of dispiro-oxindolylpyrrolothiazoles and their antimycobacterial evaluation” (2010).)
